From paper PMC10826971, “Evaluating protein cross-linking as a therapeutic strategy to stabilize SOD1 variants in a mouse model of familial ALS” (PLOS Biology, 2024)
Converted amounts (≈) assume the structure as drawn. “Also recorded” adds a separate entry of the source. Like-named read-outs stand apart in the source and are kept apart here.

Assays:
Maximum solubility = format: physicochemical; settings: pH 7.4, aqueous buffer
[1] = format: in vitro ADME; settings: human; for plasma protein binding assay readout (Fig 6C): 50 uM
Text: Fig 6 Cross-linking at sub-toxic concentrations within cells. […] Results are shown as percentage of viable cells compared to a vehicle control. Note: cell viability <70% (dotted line) is generally considered as the threshold for cytotoxicity, and viabilities >100% indicate a trophic effect. Controls included EMEM with 0.1% DMSO (dimethyl sulfoxide, negative control) and 500 μm of chlorpromazine (positive control). […] The data underlying this figure can be found in S1 Data. LC-MS/MS, liquid chromatography-tandem mass spectrometry; MS, mass spectrometry; SOD1, superoxide dismutase 1.

[2] = test system: wild-type SOD1, SOD1^A4V, SOD1^G93A, SOD1^H46R, and SOD1^G85R; test: Mass spectrometry assay for intact protein cross-linking in vitro; format: binding, human
Method: We employed a mass spectrometry (MS) assay for intact protein cross-linking. In this assay, any non-covalent (i.e., native) dimer is dissociated by a combination of acidic, organic media and MS source conditions.
Wild-type SOD1, SOD1^A4V, SOD1^G93A, SOD1^H46R, and SOD1^G85R stock solutions were diluted to 40 μm in 10 mM ammonium acetate (pH 7.4). […] Prior to infusion, samples were diluted to 1 μm in 50:50 acetonitrile:water, with 0.1% formic acid. During analysis, 32 scans were acquired in positive mode and averaged. Funnel 1 and skimmer 1 were kept around 150 V and 20 V, respectively, and funnel RF amplitude was held at 60.0 Vpp.

[3] = target: T1, EGFP-labeled SOD1 (wild-type, fALS variants, Cys111Ser, F50E/G51E) (Homo sapiens, UniProt P00441, F51E/G52E); test: Immunoblotting for SOD1-EGFP cross-linking in NSC-34 cells; format: cell-based, mouse NSC-34 cells; settings: 20 μm S-XL6
T1 construct: expressed in transfected cells; host or cells: NSC-34 mouse neuroblastoma/motor neuron hybrid cells
T1 sequence (P00441 2-154 F51E/G52E): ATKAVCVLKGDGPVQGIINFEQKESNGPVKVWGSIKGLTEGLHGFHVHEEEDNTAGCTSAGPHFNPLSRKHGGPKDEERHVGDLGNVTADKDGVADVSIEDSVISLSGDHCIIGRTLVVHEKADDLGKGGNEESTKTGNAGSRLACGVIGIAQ
Method: (§1) Mouse neuroblastoma/motor neuron hybrid cells (NSC-34) were cultured and maintained as previously described. Briefly, NSC-34 cells were cultured in Dulbecco’s Modified Eagle’s Medium with F12 supplement (DMEM/F12, Invitrogen Australia) containing 10% (v/v) heat-inactivated fetal bovine serum (FBS, Bovogen Biologicals, Australia) and 2 mM L-Glutamine (Invitrogen, Australia). Cells were passaged using 0.25% trypsin, 0.02% EDTA (Invitrogen, Australia). Cells were maintained within humidified incubators at 37°C with 5% CO2.
(§2) To transfect NSC-34 cells, they were first plated out to 40% confluency in either 6-well or 12-well tissue culture-treated plates and cultured for 24 h. Following this, TransIT-X2 reagent (Mirus Bio, USA) was used according to the manufacturer’s instructions to transfect NSC-34’s (1 μg DNA per well for 12-well plates, 2.5 μg per well for a 6-well plate). Cells were then incubated for 8 h prior to replating for experiments into other plates or chambers.
(§3) Transfected NSC-34 cells were plated out into 12-well plates and left overnight. […] Cells were then harvested via aspiration and pelleted (300 × g). Lysis and immunoblots were carried out as previously described. Briefly, cell pellets were lysed in ice-cold lysis buffer containing protease inhibitors (Thermo Fisher, USA) and N-ethylmaleimide (NEM) at a final concentration of 1 mg/mL. Protein concentration was measured by DC assay (BioRad, Australia) and samples were denatured in SDS-sample buffer containing 40 mM NEM at 90°C for 5 min. Lysates were loaded into 26-lane stain-free gels (BioRad, Australia) and electrophoresed. Proteins were transferred to 0.2 μm PVDF membranes for 1 h at 4°C. Membranes were blocked in 5% skim milk in TBST for 1 h prior to addition to primary antibody which as a rabbit anti-GFP antibody (ab290, 1:5,000, Abcam USA) and incubated overnight at 4°C. Membranes were washed 3× and then incubated for 1 h at room temperature in secondary antibody (goat anti-rabbit HRP conjugate at 1:5,000 (catalog no.: P0448; Dako). Membranes were then washed 3× prior to developing with SuperSignal West Pico Plus substrate (Thermo Fisher Scientific).

[4] = test system: EGFP-labeled SOD1 (wild-type, fALS variants, Cys111Ser, F50E/G51E); test: as above; format: cell-based, mouse NSC-34 cells
Method: as §1, §2, §3

[5] = target: T2, EGFP-labeled SOD1 (wild-type, fALS variants, Cys111Ser, F50E/G51E) (Homo sapiens, UniProt P00441, C112S); test: as above; format: cell-based, mouse NSC-34 cells; settings: 20 μm S-XL6
T2 construct: expressed in transfected cells; host or cells: NSC-34 mouse neuroblastoma/motor neuron hybrid cells
T2 sequence (P00441 2-154 C112S): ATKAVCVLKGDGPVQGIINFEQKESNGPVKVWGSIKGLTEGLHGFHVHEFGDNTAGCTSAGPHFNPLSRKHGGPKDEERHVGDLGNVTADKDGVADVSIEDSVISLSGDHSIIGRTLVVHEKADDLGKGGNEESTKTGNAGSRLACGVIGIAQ
Method: as §1, §2, §3

human serum albumin = human serum albumin (Homo sapiens, UniProt P02768); format: in vitro ADME
human serum albumin, sequence (P02768 25-609): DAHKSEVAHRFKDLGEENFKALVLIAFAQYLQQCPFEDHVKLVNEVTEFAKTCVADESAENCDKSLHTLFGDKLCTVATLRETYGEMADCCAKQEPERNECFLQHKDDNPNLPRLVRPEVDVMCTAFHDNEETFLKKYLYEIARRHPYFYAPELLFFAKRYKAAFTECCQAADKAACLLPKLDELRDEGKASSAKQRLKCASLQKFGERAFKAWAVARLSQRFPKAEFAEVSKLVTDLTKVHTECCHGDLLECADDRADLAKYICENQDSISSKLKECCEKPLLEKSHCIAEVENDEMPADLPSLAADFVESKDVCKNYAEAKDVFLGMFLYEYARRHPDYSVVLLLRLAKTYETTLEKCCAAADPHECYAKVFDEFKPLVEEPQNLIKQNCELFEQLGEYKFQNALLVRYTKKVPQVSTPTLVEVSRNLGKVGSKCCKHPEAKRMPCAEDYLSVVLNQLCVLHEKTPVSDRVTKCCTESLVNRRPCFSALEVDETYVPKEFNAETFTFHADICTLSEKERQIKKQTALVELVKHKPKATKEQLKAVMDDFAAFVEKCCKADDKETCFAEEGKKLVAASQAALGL

SOD1^G93A = SOD1^G93A (Homo sapiens, UniProt P00441, G94A); test: Differential scanning fluorimetry (DSF), thermal stability; format: binding; design: made in house; host or cells: EGy118ΔSOD1 yeast, YEp351 expression vector; settings: 10-fold molar excess S-XL6, 4 h 37°C; untreated 70.6°C
SOD1^G93A, sequence (P00441 2-154 G94A limits assumed): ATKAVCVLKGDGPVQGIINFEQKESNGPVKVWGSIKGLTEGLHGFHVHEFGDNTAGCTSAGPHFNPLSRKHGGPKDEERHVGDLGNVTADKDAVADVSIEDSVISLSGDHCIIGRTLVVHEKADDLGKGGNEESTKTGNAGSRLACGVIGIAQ
Method: (§4) To understand how cross-linking effects SOD1 stability, we quantified changes in unfolding temperature (ΔTu, hereafter thermal stability).
(§5) The effect of cross-link formation on the thermal stability of SOD1 was determined by differential scanning fluorimetry as previously described. […] After incubation, SYPRO Orange (Invitrogen Corporation, Carlsbad, California, USA), an environmentally sensitive fluorescent dye which is quenched in an aqueous environment but becomes unquenched once it binds hydrophobic residues, was added to the reaction mixture to a final concentration of 200×. The samples were then transferred to a fast optical 96-well reaction plate (Applied Biosystem, Life Technologies Corporation, Carlsbad, California, USA) and loaded on to the real-time PCR machine (Applied Biosystem, Life Technologies Corporation, Carlsbad, California, USA) after plate was spun down to eliminate bubbles. The Melt curve template in StepOne Plus software was used to set up a method. […] The final concentration of DMSO in the reaction mixture was checked as it contributes to the denaturation of proteins. […] The background data was subtracted from the average relative fluorescence and average derivate for each temperature point, and the data were normalized before Tus were quantified by averaging the negative first derivative of relative fluorescence of all 3 runs and identifying the local minima.

wild-type SOD1 = wild-type SOD1 (Homo sapiens, UniProt P00441); test: as above; format: binding; design: made in house; host or cells: EGy118ΔSOD1 yeast, YEp351 expression vector; settings: 10-fold molar excess S-XL6, 4 h 37°C; untreated 75.9°C
wild-type SOD1, sequence (P00441 2-154 limits assumed): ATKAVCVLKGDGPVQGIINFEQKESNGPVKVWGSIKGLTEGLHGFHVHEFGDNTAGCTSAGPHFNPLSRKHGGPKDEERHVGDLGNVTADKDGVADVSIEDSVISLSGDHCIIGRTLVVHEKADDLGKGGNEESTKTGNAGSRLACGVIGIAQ
Method: as §4, §5

[O-][S+]1CCCCS1 (stereo not shown) [S-XL6, 1,2-dithiane-1-oxide]
solubility (Maximum solubility): 360 mM (≈ 49 mg/mL)
plasma protein binding assay readout (Fig 6C) [1]: 79%
plasma protein binding ([1]; plasma): no binding
plasma protein binding assay readout (Fig 6C) ([1]; plasma): 144%
dead-end modifications of SOD1 [2]: not observed
conversion of SOD1 monomer to cross-linked dimer ([2]; denaturing MS conditions): full conversion of monomer to dimer
binding to the constitutively monomeric variant (F50E/G51E) [3]: lack of binding
cross-linking yield compared to leading cyclic thiosulfinates (Comp 2–5) [4]: highest cross-linking yield; also recorded: most effective compound
off-product with EGFP-wild-type and EGFP-D90A SOD1 [4]: high-molecular weight species consistent with trimeric SOD1
cross-linking of the Cys111Ser variant [5]: lack of cross-linking
binding to purified protein (human serum albumin): not bound
unfolding temperature (Tu) of S-XL6 cross-linked protein (SOD1^G93A): 85.0 °C
unfolding temperature (Tu) of S-XL6 cross-linked protein (wild-type SOD1): 90.2 °C
